Results taken from patent EP2196465A1, “(3-oxo)pyridazin-4-ylurea derivatives as PDE4 inhibitors” (Almirall, S.A., priority 2008, dated 2010).

Target: recombinant PDE4 enzyme
Test: PDE4 [3H] cAMP Scintillation Proximity Assay (SPA)
Type: biochemical
Conditions: inhibition of PDE4; 30 nM [3H] cAMP, 1 hr at room temperature, yeast extract of recombinant PDE4 enzyme
Method: Measurement of Phosphodiesterase Activity was done using a [3H] cAMP Scintillation Proximity Assay (SPA) (GE Healthcare). Compounds to be tested were disolved in DMSO at a stock concentration of 1mM and serial dilutions were prepared in 50% DMSO to determine IC50s.
The reactions were conducted in 96-well plates (Corning, Ref.3604) at room temperature, in 0.1 ml of reaction buffer containing (final concentrations): 50 mM Tris-HCl, pH 7.5, 8.3 mM MgCl2, 1.7 mM EGTA, 30 nM [3H] cAMP (approximately 150000 dpm/well) with or without the inhibitors. The reaction was initiated by adding yeast extract of recombinant PDE4 enzyme.
Plates were shaken for 1 hr at room temperature and the incubation was terminated by adding 50 µl (0.5 mg /well) of SPA yttrium silicate beads (RPNQ 0150; GE Healthcare) in the presence of zinc sulfate. Plates were stored overnight in the dark and read on a TRILUX microtiter plate reader (Perkin Elmer).

SMILES	IC50 [nM]
CCn1nc(-c2cccc(-c3cc(F)ccc3O)c2)cc(NC(=O)Nc2c(Cl)cncc2Cl)c1=O [Example 4, N-(3,5-Dichloropyridin-4-yl)-N'-[2-ethyl-6-(5'-fluoro-2'-hydroxybiphenyl-3-yl)-3-oxo-2,3-dihydropyridazin-4-yl]urea]	0.237
CCn1nc(-c2cccc(-c3cccc(C(=O)NCCN(C)C)c3)c2)cc(NC(=O)Nc2c(Cl)cncc2Cl)c1=O [Example 17, 3'-[5-({[(3,5-Dichloropyridin-4-yl)amino]carbonyl}amino)-1-ethyl-6-oxo-1,6-dihydropyridazin-3-yl]-N-[2-(dimethylamino)ethyl]biphenyl-3-carboxamide]	0.047
CCn1nc(-c2cccc(-c3cccc(C(=O)NC4CC4)c3)c2)cc(NC(=O)Nc2c(Cl)cncc2Cl)c1=O [Example 21, N-Cyclopropyl-3'-[5-({[(3,5-dichloropyridin-4-yl)amino]carbonyl}amino)-1-ethyl-6-oxo-1,6-dihydropyridazin-3-yl]biphenyl-3-carboxamide]	0.127
CCn1nc(-c2cccc(-c3cccc(C(=O)NCCCN(C)C)c3)c2)cc(NC(=O)Nc2c(Cl)cncc2Cl)c1=O [Example 22, 3'-[5-({[(3,5-Dichloropyridin-4-yl)amino]carbonyl}amino)-1-ethyl-6-oxo-1,6-dihydropyridazin-3-yl]-N-[3-(dimethylamino)propyl]biphenyl-3-carboxamide]	0.133
CCn1nc(-c2cccc(-c3ccc(C(=O)O)cc3)c2)cc(NC(=O)Nc2c(Cl)cncc2Cl)c1=O [Example 26, 3'-[5-({[(3,5-Dichloropyridin-4-yl)amino]carbonyl}amino)-1-ethyl-6-oxo-1,6-dihydropyridazin-3-yl]biphenyl-4-carboxylic acid]	0.098
CCn1nc(-c2cccc(-c3cccc(C(=O)NCCN4CCCCC4)c3)c2)cc(NC(=O)Nc2c(Cl)cncc2Cl)c1=O [Example 51, 3'-[5-({[(3,5-Dichloropyridin-4-yl)amino]carbonyl}amino)-1-ethyl-6-oxo-1,6-dihydropyridazin-3-yl]-N-(2-piperidin-1-ylethyl)biphenyl-3-carboxamide]	0.104
CCn1nc(-c2cccc(-c3ccc(CC(=O)NCCN4CCCCC4)cc3)c2)cc(NC(=O)Nc2c(Cl)cncc2Cl)c1=O [Example 117, 2-(3'-(5-(3-(3,5-dichloropyridin-4-yl)ureido)-1-ethyl-6-oxo-1,6-dihydropyridazin-3-yl)biphenyl-4-yl)-N-(2-(piperidin-1-yl)ethyl)acetamide]	0.049
CCn1nc(-c2cccc(-c3cccc(CC(=O)NCCN4CCCCC4)c3)c2)cc(NC(=O)Nc2c(Cl)cncc2Cl)c1=O [Example 118, 2-(3'-(5-(3-(3,5-dichloropyridin-4-yl)ureido)-1-ethyl-6-oxo-1,6-dihydropyridazin-3-yl)biphenyl-3-yl)-N-(2-(piperidin-1-yl)ethyl)acetamide]	0.1
CCn1nc(-c2cccc(-c3cccc(CC(=O)NCCN4CCOCC4)c3)c2)cc(NC(=O)Nc2c(Cl)cncc2Cl)c1=O [Example 119, 2-(3'-(5-(3-(3,5-dichloropyridin-4-yl)ureido)-1-ethyl-6-oxo-1,6-dihydropyridazin-3-yl)biphenyl-3-yl)-N-(2-morpholinoethyl)acetamide]	0.061
CCn1nc(-c2cccc(-c3cccc(C(=O)NCCCCCCCN(C)CCO)c3)c2)cc(NC(=O)Nc2c(Cl)cncc2Cl)c1=O [Example 120, 3'-(5-(3-(3,5-dichloropyridin-4-yl)ureido)-1-ethyl-6-oxo-1,6-dihydropyridazin-3-yl)-N-(7-((2-hydroxyethyl)(methyl)amino)heptyl)biphenyl-3-carboxamide]	0.031
CCn1nc(-c2cccc(-c3ccc(CC(=O)NCCCCCCCN(C)CCO)cc3)c2)cc(NC(=O)Nc2c(Cl)cncc2Cl)c1=O [Example 122, 2-(3'-(5-(3-(3,5-dichloropyridin-4-yl)ureido)-1-ethyl-6-oxo-1,6-dihydropyridazin-3-yl)biphenyl-4-yl)-N-(7-((2-hydroxyethyl)(methyl)amino)heptyl)acetamide]	0.056
CCn1nc(-c2cccc(-c3cc(O)cc(C(=O)NCCCCCCCN(C)CCO)c3)c2)cc(NC(=O)Nc2c(Cl)cncc2Cl)c1=O [Example 124, 3'-(5-(3-(3,5-dichloropyridin-4-yl)ureido)-1-ethyl-6-oxo-1,6-dihydropyridazin-3-yl)-5-hydroxy-N-(7-((2-hydroxyethyl)(methyl)amino)heptyl)biphenyl-3-carboxamide]	0.037
CCn1nc(-c2cccc(-c3cc(O)cc(C(=O)NC4CC4)c3)c2)cc(NC(=O)Nc2c(Cl)cncc2Cl)c1=O [Example 126, N-cyclopropyl-3'-[5-({[(3,5-dichloropyridin-4-yl)amino]carbonyl}amino)-1-ethyl-6-oxo-1,6-dihydropyridazin-3-yl]-5-hydroxybiphenyl-3-carboxamide]	0.076
CCn1nc(-c2cccc(-c3cccc(CC(=O)NC4CC4)c3)c2)cc(NC(=O)Nc2c(Cl)cncc2Cl)c1=O [Example 127, N-cyclopropyl-2-{3'-[5-({[(3,5-dichloropyridin-4-yl)amino]carbonyl}amino)-1-ethyl-6-oxo-1,6-dihydropyridazin-3-yl]biphenyl-3-yl}acetamide]	0.173
CCn1nc(-c2cccc(-c3cccc(C(=O)NCc4ccc(O)cc4)c3)c2)cc(NC(=O)Nc2c(Cl)cncc2Cl)c1=O [Example 138, 3'-[5-({[(3,5-dichloropyridin-4-yl)amino]carbonyl}amino)-1-ethyl-6-oxo-1,6-dihydropyridazin-3-yl]-N-(4-hydroxybenzyl)biphenyl-3-carboxamide]	0.391
